The source of these data is patent US8507533B2, “Glucagon receptor modulators” (Pfizer Inc., priority 2011, dated 2013).

The target of the assay is human glucagon receptor (Homo sapiens (Human), UniProt P47871). Put plainly: Glucagon cAMP Assay (Cisbio cAMP detection). Conditions: CHOK1 cells stably transfected with the human glucagon receptor; block of glucagon induced cAMP production; Kb by modified Cheng-Prusoff equation. The format is cell-based. As to the method:
The Cisbio cAMP detection assay is used to determine the ability of punitive glucagon antagonist to block glucagon induced cAMP production. Potential glucagon antagonists are re-suspended and diluted in 100% DMSO. Prior to use in the Glucagon cAMP assay 100×DMSO compound stocks are diluted 20× with DMEM-F12 media (Invitrogen) containing either 0.1% or 4% BSA. […] 2 μls of 5% DMSO or known glucagon antagonist are added to each plate to define the assay window. CHOK1 cells stably transfected with the human glucagon receptor are removed from culture flasks with cell dissociation buffer. Cell pellets are re-suspended, at a concentration of 8.3e^5 cells/ml in DMEM-F12 with or without 4% BSA and 200 uM IBMX. 6 μls of cell suspensions are added to the assay plates. Plates are incubated for 20 min at room temperature prior to the addition of a 100 μM challenge dose of glucagon. On a separate plate glucagon dose response curves are run to determine the EC50 of glucagon. After a 30 min room temperature incubation the reaction is terminated by the addition of lysis buffer containing the cAMP detection reagents. Plates are incubated for an additional 60 min at room temperature prior to being read on the Perkin Elmer fluorescent plate reader. Raw is converted to nM of cAMP produced based on a cAMP standard curve. Converted data is then analyzed using the Pfizer data analysis program. IC50 values are determined from the generated sigmoidal dose response curves. Kb values are calculated using a modified Cheng-Prusoff equation. N is the number of times the compound was assayed.

Sequence of human glucagon receptor (P47871 26-477): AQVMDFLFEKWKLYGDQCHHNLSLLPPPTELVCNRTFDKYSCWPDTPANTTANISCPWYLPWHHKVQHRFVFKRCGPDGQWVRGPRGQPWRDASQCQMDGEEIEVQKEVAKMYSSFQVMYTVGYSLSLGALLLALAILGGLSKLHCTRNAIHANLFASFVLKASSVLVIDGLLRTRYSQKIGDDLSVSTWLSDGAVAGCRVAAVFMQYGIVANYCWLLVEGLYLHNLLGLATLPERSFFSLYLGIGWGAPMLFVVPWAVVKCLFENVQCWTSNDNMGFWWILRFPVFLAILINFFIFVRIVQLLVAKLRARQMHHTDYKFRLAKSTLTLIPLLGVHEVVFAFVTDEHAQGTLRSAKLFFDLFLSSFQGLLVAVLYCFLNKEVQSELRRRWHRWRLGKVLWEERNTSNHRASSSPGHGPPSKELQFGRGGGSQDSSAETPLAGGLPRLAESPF

The molecule `CCCC(Nc1ccc(-n2cnc(C(F)(F)F)c2)c(C)c1)c1ccc(C(=O)NCCC(=O)O)cc1` (racemic) [Example 1, (+/−)-3-(4-(1-(3-methyl-4-(4-(trifluoromethyl)-1H-imidazol-1-yl)phenylamino)butyl)benzamido)propanoic acid] had a Kb of 1500 nM. For `CC(C)CC(Oc1ccc(C(=O)NCCC(=O)O)cc1)c1ccc(-n2cnc(C(F)(F)F)c2)cc1` (racemic) [Example 2, (+/−)-3-(4-(3-methyl-1-(4-(4-(trifluoromethyl)-1H-imidazol-1-yl)phenyl)butoxy)benzamido)propanoic acid] the value was 5280 nM; for `CCCC(Oc1ccc(-n2cc(C(F)(F)F)cn2)cc1)c1ccc(C(=O)NCCC(=O)O)cn1` (racemic) [Example 3, (+/−)-3-(6-(1-(4-(4-(trifluoromethyl)-1H-pyrazol-1-yl)phenoxy)butyl)nicotinamido)propanoic acid], 1820 nM; for `CC(C)CC(Cc1ccc(-n2cc(C(F)(F)F)cn2)cc1)c1ccc(C(=O)NCCC(=O)O)cc1` (racemic) [Example 4, (+/−)-3-(4-(4-methyl-1-(4-(4-(trifluoromethyl)-1H-pyrazol-1-yl)phenyl)pentan-2-yl)benzamido)propanoic acid], 1270 nM. In turn, `O=C(O)CCNC(=O)c1ccc(C(Nc2ccc(-n3cnc(C(F)(F)F)c3)nc2)C2CCCC2)cc1` (racemic) [Example 8, (+/−)-3-(4-(cyclopentyl(6-(4-(trifluoromethyl)-1H-imidazol-1-yl)pyridine-3-ylamino)methyl)benzamido)propanoic acid] returned a Kb of 155 nM.

`CCCC(Nc1ccc(-n2cnc(C(F)(F)F)c2)nc1)c1ccc(C(=O)NCCC(=O)O)cc1` (racemic) [Example 9, (+/−)-3-(4-(1-(6-(4-(trifluoromethyl)-1H-imidazol-1-yl)pyridine-3-ylamino)butyl)benzamido)propanoic acid]: the Kb turned out to be 572 nM. For `CCCC(Oc1ccc(-n2cc(SC)cn2)cc1)c1ccc(C(=O)NCCC(=O)O)cc1` (racemic) [Example 20, (+/−)-3-(4-(1-(4-(4-(methylthio)-1H-pyrazol-1-yl)phenoxy)butyl)benzamido)propanoic acid], the Kb amounted to 800 nM. Take `CCCC(Oc1ccc(-n2ccc(C(C)(C)C)n2)cc1)c1ccc(C(=O)NCCC(=O)O)cc1` (racemic) [Example 21, (+/−)-3-(4-(1-(4-(3-tert-butyl-1-1H-pyrazol-1-yl)phenoxy)butyl)benzamido)propanoic acid]: the Kb worked out at 824 nM. The result for `CCCC(Oc1ccc(-n2cc(CC)c(C)n2)cc1)c1ccc(C(=O)NCCC(=O)O)cc1` (racemic) [Example 24, (+/−)-3-(4-(1-(4-(4-ethyl-3-methyl-1H-pyrazol-1-yl)phenoxy)butyl)benzamido)propanoic acid] reads 1030 nM; that for `CCCC(Oc1ccc(-n2nc(CC)cc2CC)cc1)c1ccc(C(=O)NCCC(=O)O)cc1` (racemic) [Example 25, (+/−)-3-(4-(1-(4-(3,5-diethyl-1H-pyrazol-1-yl)phenoxy)butyl)benzamido)propanoic acid], 1120 nM. `CCCC(Oc1ccc(-n2ccc(C(C)C)n2)cc1)c1ccc(C(=O)NCCC(=O)O)cc1` (racemic) [Example 27, (+/−)-3-(4-(1-(4-(3-isopropyl-1H-pyrazol-1-yl)phenoxy)butyl)benzamido)propanoic acid]: the Kb turned out to be 1080 nM. On to `CCCC(Oc1ccc(-n2ccc(C)n2)cc1)c1ccc(C(=O)NCCC(=O)O)cc1` (racemic) [Example 29, (+/−)-3-(4-(1-(4-(3-methyl-1H-pyrazol-1-yl)phenoxy)butyl)benzamido)propanoic acid], for which the Kb is 1360 nM. The molecule `CCCC(Oc1ccc(-n2nccn2)cc1)c1ccc(C(=O)NCCC(=O)O)cc1` (racemic) [Example 30, (+/−)-3-(4-(1-(4-(2H-1,2,3-triazol-2-yl)phenoxy)butyl)benzamido)propanoic acid] registered a Kb of 1410 nM. On to `CCCC(Oc1ccc(-n2nc(C)cc2OCC)cc1)c1ccc(C(=O)NCCC(=O)O)cc1` (racemic) [Example 32, (+/−)-3-(4-(1-(4-(5-ethoxy-3-methyl-1H-pyrazol-1-yl)phenoxy)butyl)benzamido)propanoic acid], for which the Kb amounted to 1590 nM.

As to `CCCC(Oc1ccc(-n2nc(C)cc2OC)cc1)c1ccc(C(=O)NCCC(=O)O)cc1` (racemic) [Example 33, (+/−)-3-(4-(1-(4-(5-methoxy-3-methyl-1H-pyrazol-1-yl)phenoxy)butyl)benzamido)propanoic acid], the Kb stood at 1560 nM. Turning to `CCCCc1cn(-c2ccc(OC(CCC)c3ccc(C(=O)NCCC(=O)O)cc3)cc2)cn1` (racemic) [Example 34, (+/−)-3-(4-(1-(4-(4-butyl-1H-imidazol-1-yl)phenoxy)butyl)benzamido)propanoic acid], the Kb turned out to be 1710 nM. On to `CCCC(Oc1ccc(-n2c(C)c(C)c(C)c2C#N)cc1)c1ccc(C(=O)NCCC(=O)O)cc1` (racemic) [Example 35, (+/−)-3-(4-(1-(4-(2-cyano-3,4,5-trimethyl-1H-pyrrol-1-yl)phenoxy)butyl)benzamido)propanoic acid], for which the Kb is 1790 nM. In turn, `CCCC(Oc1ccc(-n2cc(C)c(C#N)c2C)cc1)c1ccc(C(=O)NCCC(=O)O)cc1` (racemic) [Example 36, (+/−)-3-(4-(1-(4-(3-cyano-2,4-dimethyl-1H-pyrrol-1-yl)phenoxy)butyl)benzamido)propanoic acid] returned a Kb of 1820 nM. For `CCCC(Oc1ccc(-n2ccc(C)c2C#N)cc1)c1ccc(C(=O)NCCC(=O)O)cc1` (racemic) [Example 37, (+/−)-3-(4-(1-(4-(2-cyano-3-methyl-1H-pyrrol-1-yl)phenoxy)butyl)benzamido)propanoic acid] the value was 1760 nM; for `CCCc1ccn(-c2ccc(OC(CCC)c3ccc(C(=O)NCCC(=O)O)cn3)cc2)n1` (racemic) [Example 38, (+/−)-3-(6-(1-(4-(3-propyl-1H-pyrazol-1-yl)phenoxy)butyl)nicotinamido)propanoic acid], 2130 nM. The result for `CCCC(Oc1ccc(-n2cc(C)c(C)n2)cc1)c1ccc(C(=O)NCCC(=O)O)cc1` (racemic) [Example 39, (+/−)-3-(4-(1-(4-(3,4-dimethyl-1H-pyrazol-1-yl)phenoxy)butyl)benzamido)propanoic acid] reads 2460 nM.

Take `CCCC(Oc1ccc(-n2ccn3nccc23)cc1)c1ccc(C(=O)NCCC(=O)O)cc1` (racemic) [Example 41, (+/−)-3-(4-(1-(4-(1H-imidazo[1,2-b]pyrazol-1-yl)phenoxy)butyl)benzamido)propanoic acid]: the Kb is 2840 nM.

Turning to `CCCC(Oc1ccc(-n2ccc(CC)n2)cc1)c1ccc(C(=O)NCCC(=O)O)cc1` (racemic) [Example 42, (+/−)-3-(4-(1-(4-(3-ethyl-1H-pyrazol-1-yl)phenoxy)butyl)benzamido)propanoic acid], the Kb came out at 2810 nM.

In the case of `CCCC(Oc1ccc(-n2cnc(Cl)c2C)cc1)c1ccc(C(=O)NCCC(=O)O)cc1` (racemic) [Example 43, (+/−)-3-(4-(1-(4-(4-chloro-5-methyl-1H-imidazol-1-yl)phenoxy)butyl)benzamido)propanoic acid], the Kb amounted to 2910 nM. On to `CCCC(Oc1ccc(-n2cnc(CC)c2CC)cc1)c1ccc(C(=O)NCCC(=O)O)cc1` (racemic) [Example 44, (+/−)-3-(4-(1-(4-(4,5-diethyl-1H-imidazol-1-yl)phenoxy)butyl)benzamido)propanoic acid], for which the Kb amounted to 3110 nM.

`CCCC(Oc1ccc(-n2nc(C)cc2C)cc1)c1ccc(C(=O)NCCC(=O)O)cc1` (racemic) [Example 45, (+/−)-3-(4-(1-(4-(3,5-dimethyl-1H-pyrazol-1-yl)phenoxy)butyl)benzamido)propanoic acid]: the Kb came out at 3350 nM.

Regarding `CCCC(Oc1ccc(-n2cnc(C)n2)cc1)c1ccc(C(=O)NCCC(=O)O)cc1` (racemic) [Example 46, (+/−)-3-(4-(1-(4-(3-methyl-1H-1,2,4-triazol-1-yl)phenoxy)butyl)benzamido)propanoic acid], the Kb was 6890 nM.

On to `CCCC(Oc1ccc(-n2cncn2)cc1)c1ccc(C(=O)NCCC(=O)O)cc1` (racemic) [Example 47, (+/−)-3-(4-(1-(4-(1H-1,2,4-triazol-1-yl)phenoxy)butyl)benzamido)propanoic acid], for which the Kb stood at 7810 nM. Regarding `CCCCc1nccn1-c1ccc(OC(CCC)c2ccc(C(=O)NCCC(=O)O)cc2)cc1` (racemic) [Example 48, (+/−)-3-(4-(1-(4-(2-butyl-1H-imidazol-1-yl)phenoxy)butyl)benzamido)propanoic acid], the Kb is 8150 nM. Molecule `CCCC(Oc1ccc(-n2cnc(C)c2C)cc1)c1ccc(C(=O)NCCC(=O)O)cc1` (racemic) [Example 49, (+/−)-3-(4-(1-(4-(4,5-dimethyl-1H-imidazol-1-yl)phenoxy)butyl)benzamido)propanoic acid] registered a Kb of 10300 nM. Molecule `CCCC(Oc1ccc(-c2cnn(CCC)c2)cc1)c1ccc(C(=O)NCCC(=O)O)cc1` (racemic) [Example 50, (+/−)-3-(4-(1-(4-(1-propyl-1H-pyrazol-4-yl)phenoxy)butyl)benzamido)propanoic acid] displayed a Kb of 1560 nM.
